# According to patent publication US7754709B2 (Solvay Pharmaceuticals BV, priority 2003, dated 2010):
# Several values for one entry are separate records, joined by “and”; a condition that tells them apart may be missing. Equal values may be shown once.
# Assays:
# Type in all cases: cell-based
# [1] = biological target: T1, 17β-hydroxysteroid dehydrogenase type 2 (Homo sapiens, UniProt P37059); experiment: Inhibition of 17β-HSD type 2 in MCF-7 cells stably expressing the isoenzyme (HPLC, tritium labeled estradiol); details: 2 nM estradiol, read-out: % Inhibition of the 17β-HSD enzyme type 2 (HSD2); for inhibition at 1 µM: MCF7, 1 μM compound; for inhibition at 10 µM: MCF7, 10 μM compound
# T1 construct: expressed in transfected cells; host or cells: MCF-7
# T1 sequence (P37059 1-387): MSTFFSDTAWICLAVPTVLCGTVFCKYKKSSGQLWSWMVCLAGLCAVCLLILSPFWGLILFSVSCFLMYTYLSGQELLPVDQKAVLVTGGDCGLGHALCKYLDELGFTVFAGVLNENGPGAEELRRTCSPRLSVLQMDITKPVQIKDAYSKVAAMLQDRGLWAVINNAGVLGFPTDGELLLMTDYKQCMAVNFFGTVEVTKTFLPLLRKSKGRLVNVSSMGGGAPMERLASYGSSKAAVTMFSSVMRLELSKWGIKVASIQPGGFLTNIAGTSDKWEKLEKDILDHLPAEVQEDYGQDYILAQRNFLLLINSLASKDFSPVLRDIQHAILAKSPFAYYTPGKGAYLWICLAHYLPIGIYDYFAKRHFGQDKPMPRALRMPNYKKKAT
# Description: (§1) Biological Testing Materials and Methods 1. Inhibition of the 17β-hydroxysteroid dehydrogenase type 1, type 2 and type 3 enzyme
# (§2) The compounds were screened in respect of 17β-HSD enzyme activity in vitro on established M CF-7 cell lines, each stably expressing one of the respective 17β-HSD isoenzymes. The interconversion of substrate by each isoenzyme and the 17β-HSD inhibiting activity of chemical compounds in these cell lines were detected by HPLC system.
# (§3) Varying amounts of the test compounds were incubated in the growth medium of the 17β-HSD expressing cells together tritium labeled substrate (2 nM estrone for 17β-HSD type 1; 2 nM estradiol for 17β-HSD type 2; and 2 nM androstenedione for 17β-HSD type 3). The medium samples were removed after exact incubation time and the reaction is stopped by trichloroacetic acid (TCA). The samples were analyzed by HPLC-coupled flow scintillation analysis.
# (§4) For each enzyme type, the HSD-inhibiting activity of an individual test compound was calculated by comparing the conversion of a control sample without any test compound (referred to as “Negative Control”) to the (reduced) conversion of the test sample containing the particular compound to be tested (referred to as “Test Sample”).
# (§5) Two concentrations of each compound were used. The number of the compound refers to the numbers indicated in the Experimental Section.
# [2] = biological target: T2, 17β-hydroxysteroid dehydrogenase type 3 (Homo sapiens, UniProt P37058); experiment: Inhibition of 17β-HSD type 3 in MCF-7 cells stably expressing the isoenzyme (HPLC, tritium labeled androstenedione); details: 2 nM androstenedione; for inhibition at 1 µM: MCF7, 1 μM compound; for inhibition at 1 µM / inhibition at 10 µM: read-out: % Inhibition of the 17β-HSD enzyme type 3 (HSD3); for inhibition at 10 µM: MCF7, 10 μM compound
# T2 construct: expressed in transfected cells; host or cells: MCF-7
# T2 sequence (P37058 1-310): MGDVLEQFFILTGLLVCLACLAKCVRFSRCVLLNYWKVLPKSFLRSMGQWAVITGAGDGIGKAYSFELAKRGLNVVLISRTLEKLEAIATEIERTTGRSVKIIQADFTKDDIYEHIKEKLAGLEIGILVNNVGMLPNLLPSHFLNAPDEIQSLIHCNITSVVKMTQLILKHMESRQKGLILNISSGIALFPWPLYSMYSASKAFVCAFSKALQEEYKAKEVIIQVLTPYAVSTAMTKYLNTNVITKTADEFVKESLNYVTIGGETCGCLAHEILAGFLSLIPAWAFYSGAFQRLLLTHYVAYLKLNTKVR
# Description: as §1, §2, §3, §4, §5
# [3] = biological target: T3, 17β-hydroxysteroid dehydrogenase type 1 (Homo sapiens, UniProt P14061); experiment: Inhibition of 17β-HSD type 1 in MCF-7 cells stably expressing the isoenzyme (HPLC, tritium labeled estrone); details: 2 nM estrone; for inhibition at 1 µM: MCF7, 1 μM compound; for inhibition at 1 µM / inhibition at 10 µM: read-out: % Inhibition of the 17β-HSD enzyme type 1 (HSD1); for inhibition at 10 µM: MCF7, 10 μM compound
# T3 construct: expressed in transfected cells; host or cells: MCF-7
# T3 sequence (P14061 1-328): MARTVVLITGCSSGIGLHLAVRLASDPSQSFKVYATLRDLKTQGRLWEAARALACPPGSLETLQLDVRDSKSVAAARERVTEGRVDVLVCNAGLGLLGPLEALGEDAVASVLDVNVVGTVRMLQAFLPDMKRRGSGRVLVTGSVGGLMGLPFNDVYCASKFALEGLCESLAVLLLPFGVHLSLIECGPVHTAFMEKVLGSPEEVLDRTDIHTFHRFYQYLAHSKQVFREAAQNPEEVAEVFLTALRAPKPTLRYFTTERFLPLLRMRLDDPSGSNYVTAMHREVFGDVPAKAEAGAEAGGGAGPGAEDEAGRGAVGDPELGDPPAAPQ
# Description: as §1, §2, §3, §4, §5
inhibition at 1 µM [1],inhibition at 10 µM [1],inhibition at 1 µM [2],inhibition at 10 µM [2],inhibition at 1 µM [3],inhibition at 10 µM [3],% Inhibition of the 17β-HSD enzyme type 3 (HSD3) ([2]; 1 μM compound),% Inhibition of the 17β-HSD enzyme type 3 (HSD3) ([2]; 10 μM compound),% Inhibition of the 17β-HSD enzyme type 1 (HSD1) ([3]; 1 μM compound),% Inhibition of the 17β-HSD enzyme type 1 (HSD1) ([3]; 10 μM compound),SMILES
16.2%,23.4%,39%,24.9%,10%,45.9%,–,–,–,–,"O=c1c2c3c(sc2nc2n1CCCCC2)CCCC3 [Compound 2a, 2,3,4,7,8,9,10,11-Octahydro[1]benzothieno[2′,3′:4,5]pyrimido-[1,2-a]azepin-13(1H)-one]"
15.9%,21.4%,4.2%,9.5%,21%,15%,–,–,–,–,"O=c1c2c3c(sc2nc2n1CCCCC2)CCC3 [Compound 2b, 1,2,3,6,7,8,9,10-Octahydro-12H-cyclopenta[4′,5′]thieno[2′,3′:4,5]pyrimido[1,2-a]-azepin-12-one]"
8.9%,13.5%,50.8%,47%,22.7%,39.8%,–,–,–,–,"O=c1c2c3c(sc2nc2n1CCCCC2)CCCCC3 [Compound 2c, 1,2,3,4,5,8,9,10,11,12-Decahydro-14H-cyclohepta[4′,5′]thieno[2′,3′:4,5]pyrimido-[1,2-a]azepin-14-one]"
26%,28.9%,46.8%,38.8%,15.8%,20%,–,–,–,–,"O=c1c2c3c(sc2nc2n1CCCC2)CCCC3 [Compound 2e, 1,2,3,4,7,8,9,10-Octahydro-12H-[1]benzothieno[2,3-d]pyrido[1,2-a]pyrimidin-12-one]"
37%,32.4%,48.2%,40.4%,19.9%,19.2%,–,–,–,–,"O=c1c2c3c(sc2nc2n1CCC2)CCCC3 [Compound 2f, 2,3,6,7,8,9-Hexahydro[1]benzothieno[2,3-d]pyrrolo[1,2-a]pyrimidin-10(1H)-one]"
44.9%,24.9%,51.7%,51.3%,30.7%,37%,–,–,–,–,"Cc1nc2sc3c(c2c(=O)n1C)CCCC3 [Compound 2g, 5,6,7,8-Tetrahydro-2,3-dimethyl[1]benzothieno[2,3-d]pyrimidin-4(3H)-one]"
20.6%,29.4%,4.4%,9.9%,12.7%,18.5%,–,–,–,–,"CCc1nc2sc3c(c2c(=O)n1C)CCCC3 [Compound 2i, 5,6,7,8-Tetrahydro-2-ethyl-3-methyl[1]benzothieno[2,3-d]pyrimidin-4(3H)-one]"
14.1%,25.4%,0.3%,13.7%,13.5%,20.7%,–,–,–,–,"O=C1CCc2c1sc1nc3n(c(=O)c21)CCCCC3 [Compound 3b, 1,2,6,7,8,9,10-heptahydrocyclopenta[4′,5′]thieno[2′,3′:4,5]pyrimido[1,2-a]-azepin-3,12-dione]"
14.1%,11.1%,15.3%,–,14.3%,42.9%,22.3%,16.7% and 8.1%,18.2%,37.6%,"O=C1CCCc2c1sc1nc3n(c(=O)c21)CCCCCC3 [Compound 3d, 1,2,7,8,9,10,11,12-octahydro[1]benzothieno[2′,3′:4,5]pyrimido-[1,2-a]azocin-4, 14(3H)-dione]"
25.7%,16.3%,38.5%,47.4%,6.3%,35.8%,–,–,–,–,O=C1CCCc2c1sc1nc3n(c(=O)c21)CCCC3 [Compound 3e]
31.1%,21.8%,43.9%,40.2%,8.7%,22%,–,–,–,–,"O=C1CCCc2c1sc1nc3n(c(=O)c21)CCC3 [Compound 3f, 2,3,8,9-Tetrahydro[1]benzothieno[2,3-d]pyrrolo[1,2-a]pyrimidine-6,10(1H,7H)-dione]"
3.5%,1.5%,–,42.1%,36.9%,82.1%,5.3% and 14.3%,43.9%,31.2%,80.1%,"O=CC1=C(Cl)c2sc3nc4n(c(=O)c3c2CC1)CCCCCC4 [Compound 4b, 4-Chloro-1,2,3,7,8,9, 10,11,12-octahydro[1]benzothieno[2′,3′:4,5]pyrimido-[1,2-a]-azocin-14-one-4-carboxyaldehyde]"
9.6%,28.3%,9.8%,14.2%,23.5%,44.4%,11.1%,17.3%,24.6%,52.1%,"Cn1cnc2sc3c(c2c1=O)CCC(C=O)=C3Cl [Compound 4e, 8-Chloro-5,6-dihydro-3-methyl[1]benzothieno[2,3-d]pyrimidin-4(3H)-one-7-carboxyaldehyde]"
19.7%,25.2%,43.4%,100%,66.1%,100%,–,–,–,–,"CCSC1=C(C=O)CCc2c1sc1nc3n(c(=O)c21)CCCCC3 [Compound 5b, 1,2,7,8,9,10,11,13-Octahydro-13-oxo-4-(ethylthio)[1]benzothieno[2′,3′:4,5]-pyrimido-[1,2-a]azepine-3-carboxaldehyde]"
14%,-5.1%,–,–,19.7%,22.5%,–,–,–,–,"CC1CCc2c(sc3nc4n(c(=O)c23)CCCCC4)C1O (stereo not shown) [Compound 32, 4-Hydroxy-3-methyl-2,3,4,7,8,9,10,1-octahydro [1]benzothieno[2′,3′: 4,5]pyrimido-[1,2-a]azepin-13(1H)-one]"
5%,-0.1%,–,–,15.3%,22.6%,–,–,–,–,"CCCSC1=C(C=O)CCc2c1sc1nc3n(c(=O)c21)CCC(C(=O)O)CC3 (stereo not shown) [Compound 33, 3-Formyl-1,2,7,8,9,10,11,13-octahydro-13-oxo-4-(propylthio)-[1]benzothieno[2′,3′: 4,5] pyrimido[1,2-a]azepine-9-carboxylic acid]"
13%,-0.5%,–,–,14.9%,48.1%,–,–,–,–,"CCCSC1=C(C=O)CCc2c1sc1nc3n(c(=O)c21)CCC(C)CC3 (stereo not shown) [Compound 34, 9-Methyl-1,2,7,8,9,10,11,13-octahydro-13-oxo-4-(propylthio)-[1]benzothieno[2′,3′: 4,5]-pyrimido[1,2-a]azepine-3-carbaldehyde]"
